Patent publication US20230102554A1 (GB002, INC., priority 2019, published 2023)

Experiments:
[1] = target: T1, Human PDGFRβ, cytoplasmic domain (GST-PDGFRβ) (Homo sapiens, UniProt P09619); experiment: Human PDGFRβ biochemical inhibition assay (off-chip Mobility Shift Assay)
T1 construct: made in house
How it was run: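 GST-tagged cytoplasmic domain (aa 557-1106) from baculovirus was incubated 1 h at room temperature with compound, CSKtide, ATP at Km and Mg²⁺ in HEPES buffer, pH 7.5. Phosphorylated and unphosphorylated peptide were separated by off-chip mobility shift, and the product ratio P/(P+S) gave percent inhibition.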

[2] = target: T2, Human PDGFRα, cytoplasmic domain (GST-PDGFRα) (Homo sapiens, UniProt P16234); experiment: Human PDGFRα biochemical inhibition assay (off-chip Mobility Shift Assay)
T2 construct: made in house
T2 sequence (P16234 550-1089 T674I): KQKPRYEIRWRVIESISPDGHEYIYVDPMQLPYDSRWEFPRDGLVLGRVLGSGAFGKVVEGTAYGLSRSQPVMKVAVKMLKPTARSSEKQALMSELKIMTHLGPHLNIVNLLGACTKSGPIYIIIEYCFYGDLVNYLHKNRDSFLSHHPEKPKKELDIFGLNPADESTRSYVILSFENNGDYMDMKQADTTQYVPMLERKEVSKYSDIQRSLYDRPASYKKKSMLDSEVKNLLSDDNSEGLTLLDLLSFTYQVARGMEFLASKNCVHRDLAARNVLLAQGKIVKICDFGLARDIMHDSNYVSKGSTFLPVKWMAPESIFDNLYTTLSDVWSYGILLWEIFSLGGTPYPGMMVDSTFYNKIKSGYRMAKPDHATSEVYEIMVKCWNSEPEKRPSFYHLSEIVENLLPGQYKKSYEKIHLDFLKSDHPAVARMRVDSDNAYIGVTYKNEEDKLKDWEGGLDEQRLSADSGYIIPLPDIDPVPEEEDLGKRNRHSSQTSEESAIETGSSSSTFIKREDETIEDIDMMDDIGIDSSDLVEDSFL

T1 sequence (P09619 with tags, fused parts or gaps): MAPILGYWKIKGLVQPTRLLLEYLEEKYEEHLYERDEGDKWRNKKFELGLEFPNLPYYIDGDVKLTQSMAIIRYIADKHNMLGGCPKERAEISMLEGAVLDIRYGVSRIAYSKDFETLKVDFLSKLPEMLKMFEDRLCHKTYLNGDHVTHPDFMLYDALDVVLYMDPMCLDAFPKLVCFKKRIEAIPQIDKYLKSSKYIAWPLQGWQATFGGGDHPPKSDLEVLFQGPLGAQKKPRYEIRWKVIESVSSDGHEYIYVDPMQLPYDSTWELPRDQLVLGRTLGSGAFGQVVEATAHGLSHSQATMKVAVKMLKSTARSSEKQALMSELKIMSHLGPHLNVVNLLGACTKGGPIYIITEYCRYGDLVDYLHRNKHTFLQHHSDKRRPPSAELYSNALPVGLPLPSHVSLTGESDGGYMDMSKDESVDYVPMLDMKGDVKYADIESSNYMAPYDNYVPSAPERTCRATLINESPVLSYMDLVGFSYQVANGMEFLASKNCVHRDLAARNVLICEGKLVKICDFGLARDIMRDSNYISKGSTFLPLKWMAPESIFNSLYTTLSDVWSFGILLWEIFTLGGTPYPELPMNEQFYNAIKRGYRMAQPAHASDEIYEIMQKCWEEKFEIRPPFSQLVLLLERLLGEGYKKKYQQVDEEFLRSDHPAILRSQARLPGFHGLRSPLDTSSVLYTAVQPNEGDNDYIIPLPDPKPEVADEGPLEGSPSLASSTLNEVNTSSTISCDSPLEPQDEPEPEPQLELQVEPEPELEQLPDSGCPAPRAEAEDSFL

Row | Compound | IC50 [1] [nM] | IC50 [2] [nM]
1 | CCn1cc2ncc(N[C@@H](C)c3cc(NC(=O)Cc4cncc(Cl)c4)ccc3F)nc2n1 [Compound 663, (S)-2-(5-chloropyridin-3-yl)-N-(3-(1-((2-ethyl-2H-pyrazolo[3,4-b]pyrazin-6-yl)amino)ethyl)-4-fluorophenyl)acetamide] | 300 to 1000 | < 300
2 | COC(=O)c1ccc(C(=O)Nc2cccc([C@H](C)Nc3cnc4cnn(C)c4n3)c2)cn1 [Compound 212, methyl (S)-5-((3-(1-((1-methyl-1H-pyrazolo[3,4-b]pyrazin-6-yl)amino)ethyl)phenyl)carbamoyl) picolinate] | ≥ 1000 | 300 to 1000
3 | Cc1cncc(C(=O)Nc2cccc([C@H](C)Nc3cnc4ccc(Br)cc4n3)c2)c1 [Compound 39, (S)-N-(3-(1-((7-bromoquinoxalin-2-yl)amino)ethyl)phenyl)-5-methylnicotinamide] | < 300 | < 300
4 | C[C@H](Nc1cnc2cnn(C)c2n1)c1cccc(NC(=O)c2cnc3c(ccn3C)c2)c1 [Compound 169, (S)-1-methyl-N-(3-(1-((1-methyl-1H-pyrazolo[3,4-b]pyrazin-6-yl)amino)ethyl)phenyl)-1H-pyrrolo[2,3-b] pyridine-5-carboxamide] | < 300 | < 300
5 | Cc1cc(C(=O)Nc2cccc([C@H](C)Nc3cnc4cnn(C)c4n3)c2)cnc1C#N [Compound 127, (S)-6-cyano-5-methyl-N-(3-(1-((1-methyl-1H-pyrazolo[3,4-b]pyrazin-6-yl)amino)ethyl)phenyl)nicotinamide] | < 300 | < 300
6 | C[C@H](Nc1cnc2[nH]ccc2n1)c1cc(NC(=O)c2ccc(OC(F)F)nc2)ccc1F [Compound 596, (S)-N-(3-(1-((5H-pyrrolo[2,3-b]pyrazin-2-yl)amino)ethyl)-4-fluorophenyl)-6-(difluoromethoxy)nicotinamide] | < 300 | < 300
7 | CC(C)n1ccc(C(=O)Nc2cccc([C@H](C)Nc3cnc4cnn(C)c4n3)c2)n1 [Compound 156, (S)-1-isopropyl-N-(3-(1-((1-methyl-1H-pyrazolo[3,4-b]pyrazin-6-yl)amino)ethyl)phenyl)-1H-pyrazole-3-carboxamide] | < 300 | < 300
8 | C[C@H](Nc1cnc2cnn(C)c2n1)c1cccc(NC(=O)c2cncc(C(C)(C)F)c2)c1 [Compound 108, (S)-5-(2-fluoropropan-2-yl)-N-(3-(1-((1-methyl-1H-pyrazolo[3,4-b]pyrazin-6-yl)amino)ethyl)phenyl) nicotinamide] | < 300 | < 300
9 | C[C@H](Nc1cnc2cnn(C)c2n1)c1cccc(NC(=O)c2ccc(C(F)(F)F)nc2)c1 [Compound 115, (S)-N-(3-(1-((1-methyl-1H-pyrazolo[3,4-b]pyrazin-6-yl)amino)ethyl)phenyl)-6-(trifluoromethyl)nicotinamide] | < 300 | < 300
10 | Cc1cncc(C(=O)Nc2cccc([C@H](C)Nc3cnc4cnn(C5CCOC5)c4n3)c2)c1 (stereo partly drawn) [Compound 182, 5-methyl-N-(3-((1S)-1-((1-(tetrahydrofuran-3-yl)-1H-pyrazolo[3,4-b]pyrazin-6-yl)amino)ethyl)phenyl) nicotinamide] | ≥ 1000 | < 300
11 | CCn1cc2ncc(N[C@@H](C)c3cc(NC(=O)c4cnc(N5CCN(C)CC5)c(C)c4)ccc3C)nc2n1 [Compound 514, (S)-N-(3-(1-((2-ethyl-2H-pyrazolo[3,4-b]pyrazin-6-yl)amino)ethyl)-4-methylphenyl)-5-methyl-6-(4-methylpiperazin-1-yl)nicotinamide] | < 300 | < 300
12 | C[C@H](Nc1cnc2cnn(C)c2n1)c1cccc(NC(=O)c2ccc(Cl)s2)c1 [Compound 135, (S)-5-chloro-N-(3-(1-((1-methyl-1H-pyrazolo[3,4-b]pyrazin-6-yl)amino)ethyl)phenyl)thiophene-2-carboxamide] | < 300 | < 300
13 | Cc1n[nH]c2ncc(N[C@@H](C)c3cccc(NC(=O)c4cnc(C(F)(F)F)s4)c3)nc12 [Compound 540, (S)-N-(3-(1-((3-methyl-1H-pyrazolo[3,4-b]pyrazin-5-yl)amino)ethyl)phenyl)-2-(trifluoromethyl)thiazole-5-carboxamide] | < 300 | < 300
14 | Cc1c[nH]c2ncc(N[C@@H](C)c3cccc(NC(=O)c4cncc(C(F)F)c4)c3)nc12 [Compound 556, (S)-5-(difluoromethyl)-N-(3-(1-((7-methyl-5H-pyrrolo[2,3-6]pyrazin-2-yl)amino)ethyl)phenyl)nicotinamide] | < 300 | < 300

Further lines, results first:

Row | IC50 [1] [nM] | IC50 [2] [nM] | Compound
15 | < 300 | < 300 | Cc1cncc(C(=O)Nc2ccc(F)c([C@H](C)Nc3cnc4cn(CC5CNCCO5)nc4n3)c2)c1 (stereo partly drawn) [Compound 411, N-(4-fluoro-3-((1S)-1-((2-(morpholin-2-ylmethyl)-2H-pyrazolo[3,4-b]pyrazin-6-yl)amino)ethyl)phenyl)-5-methylnicotinamide]
16 | < 300 | < 300 | CCn1cc2ncc(N[C@@H](C)c3cccc(NC(=O)c4ccc(N5CCN(C)CC5)c(C(F)(F)F)c4)c3)nc2n1 [Compound 436, (S)-N-(3-(1-((2-ethyl-2H-pyrazolo[3,4-b]pyrazin-6-yl)amino)ethyl)phenyl)-4-(4-methylpiperazin-1-yl)-3-(trifluoromethyl)benzamide]
17 | < 300 | < 300 | Cc1cc(C(=O)Nc2cccc([C@H](C)Nc3cnc4cnn(C)c4n3)c2)cnc1CN1CCN(C)CC1 [Compound 243, (S)-5-methyl-N-(3-(1-((1-methyl-1H-pyrazolo[3,4-b]pyrazin-6-yl)amino)ethyl)phenyl)-6-((4-methylpiperazin-1-yl)methyl)nicotinamide]
18 | ≥ 1000 | < 300 | CCn1cc2ncc(N[C@@H](C)c3cccc(NC(=O)Cc4ccc(Cl)cn4)c3)nc2n1 [Compound 681, (S)-2-(5-chloropyridin-2-yl)-N-(3-(1-((2-ethyl-2H-pyrazolo[3,4-b]pyrazin-6-yl)amino)ethyl)phenyl)acetamide]
19 | < 300 | < 300 | C[C@H](Nc1cnc2cn[nH]c2n1)c1cccc(NC(=O)c2cncc(C3CCC3)c2)c1 [Compound 96, (S)-N-(3-(1-((1H-pyrazolo[3,4-b]pyrazin-6-yl)amino)ethyl)phenyl)-5-cyclobutylnicotinamide]
20 | < 300 | < 300 | Cc1cncc(C(=O)Nc2cccc([C@H](C)Nc3cnc4[nH]c(C5CC5)nc4c3)c2)c1 [Compound 601, (S)-N-(3-(1-((2-cyclopropyl-3H-imidazo[4,5-6]pyridin-6-yl)amino)ethyl)phenyl)-5-methylnicotinamide]
21 | < 300 | < 300 | Cc1c[nH]c2ncc(N[C@@H](C)c3cccc(NC(=O)c4ccc(C(F)(F)F)nc4)c3)nc12 [Compound 557, (S)-N-(3-(1-((7-methyl-5H-pyrrolo[2,3-b]pyrazin-2-yl)amino)ethyl)phenyl)-6-(trifluoromethyl)nicotinamide]
22 | 300 to 1000 | < 300 | CCn1cc2ncc(N[C@@H](C)c3cccc(NC(=O)c4ccc(CN5CC6(C5)CC6(F)F)c(C)c4)c3)nc2n1 [Compound 461]
23 | < 300 | < 300 | COc1ncc(C(=O)Nc2cccc([C@H](C)Nc3cnc4[nH]cc(-c5cnn(C)c5)c4n3)c2)cc1C [Compound 579, (S)-6-methoxy-5-methyl-N-(3-(1-((7-(1-methyl-1H-pyrazol-4-yl)-5H-pyrrolo[2,3-b]pyrazin-2-yl)amino)ethyl)phenyl) nicotinamide]
24 | ≥ 1000 | < 300 | CCn1cc2ncc(N[C@@H](C)c3cccc(NC(=O)Cc4ccc(C)cn4)c3)nc2n1 [Compound 25, (S)—N-(3-(1-((2-ethyl-2H-pyrazolo[3,4-b]pyrazin-6-yl)amino)ethyl)phenyl)-2-(5-methylpyridin-2-yl)acetamide]
25 | < 300 | < 300 | Cc1n[nH]c2ncc(N[C@@H](C)c3cccc(NC(=O)c4ccc(C(F)(F)F)nc4)c3)nc12 [Compound 534, (S)-N-(3-(1-((3-methyl-1H-pyrazolo[3,4-b]pyrazin-5-yl)amino)ethyl)phenyl)-6-(trifluoromethyl)nicotinamide]
26 | < 300 | < 300 | CCn1cc2ncc(N[C@@H](C)c3cccc(NC(=O)c4ccc(NC(C)C)c(C)c4)c3)nc2n1 [Compound 405, (S)-N-(3-(1-((2-ethyl-2H-pyrazolo[3,4-b]pyrazin-6-yl)amino)ethyl)phenyl)-4-(isopropylamino)-3-methylbenzamide]
27 | < 300 | < 300 | COc1cncc(C(=O)Nc2cccc([C@H](C)Nc3cnc4[nH]nc(C)c4n3)c2)c1 [Compound 531, (S)-5-methoxy-N-(3-(1-((3-methyl-1H-pyrazolo[3,4-b]pyrazin-5-yl)amino)ethyl)phenyl)nicotinamide]
28 | < 300 | < 300 | CCn1cc2ncc(N[C@@H](C)c3cccc(NC(=O)c4cnc(OCC5CC5)c(C)c4)c3)nc2n1 [Compound 315, (S)-6-(cyclopropylmethoxy)-N-(3-(1-((2-ethyl-2H-pyrazolo[3,4-b]pyrazin-6-yl)amino)ethyl)phenyl)-5-methylnicotinamide]
29 | < 300 | < 300 | CCn1cc2ncc(N[C@@H](C)c3cccc(NC(=O)c4ccc(CN5CC[C@H](F)C5)c(Cl)c4)c3)nc2n1 [Compound 484, 3-chloro-N-(3-((S)-1-((2-ethyl-2H-pyrazolo[3,4-b]pyrazin-6-yl)amino)ethyl)phenyl)-4-(((S)-3-fluoropyrrolidin-1-yl)methyl) benzamide]
30 | < 300 | < 300 | C[C@H](Nc1cnc2cnn(C)c2n1)c1cccc(NC(=O)c2ccc3c(c2)COC3=O)c1 [Compound 67, (S)-N-(3-(1-((1-methyl-1H-pyrazolo[3,4-b]pyrazin-6-yl)amino)ethyl)phenyl)-1-oxo-1,3-dihydroisobenzofuran-5-carboxamide]
